# Measured values published in patent US9956201B2, “Compositions comprising bioreversible derivatives of hydroxy N-substituted-2-aminotetralins, and related dosage forms” (Spriaso LLC, priority 2014, dated 2018).
# What was measured:
# [1] = Apparent lipophilicity log D at pH 7.4 (octanol / pH 7.4 surfactant free buffer); format: physicochemical
# Text: The log DpH=7.4 value is a log of the distribution efficiency (ratio of concentrations of the disclosed bioreversible derivatives in octanol solvent to a pH 7.4 aqueous surfactant free buffer media).
# TABLE 5 summarized the intrinsic lipophilicity and apparent lipophilicity of hydroxy N-substituted-2-aminotetralins in comparison with those of some examples of the corresponding bioreversible derivatives according to the disclosure.
# [2] = cited from earlier work
# [3] = Pharmacokinetics of dosage forms at varied doses of Composition 1c-10 containing caprate ester A10; format: in vivo; conditions: serum rotigotine, human, oral, Composition 1c-10 with A10
# Procedure: Serial blood samples were drawn at predetermined time (e.g., t=0, 12, 24, etc.) and analyzed for rotigotine concentration using a validated HPLC-MS/MS analytical method. The rotigotine Cmax, ratio of rotiogtine peak levels to rotigotine equivalent, Cmax/mg, rotiogotine Cavgt1-t2, rotigotine steady state maximum concentration, Css-max, rotigotine AUCt1-t2 and ratio of rotigotine area under the curve to rotigotine equivalent dose in mg, AUCt1-t2/mg, were calculated in the serum of the subjects. Pharmacokinetic and statistical analyses were performed on the data obtained from the subjects, the pharmacokinetic parameters were defined as follows:
# […] Serial blood samples were drawn for the human subjects at predetermined time (e.g., t=0, 12, 24, etc.) and analyzed to determine pharmacokinetic parameters in the serum of the subjects.
# [4] = no method; cited from earlier work
# [5] = dose 0.1 mg as rotigotine equivalent
# [6] = dose 500 mg as rotigotine equivalent
SMILES,Apparent Lipophilicity logD7.4 [1],pKa [4],also measured
"CCCN(CCc1cccs1)[C@H]1CCc2c(O)cccc2C1 [Compound A1, (S)-6-[propyl(2-thiophen-2-ylethyl)amino]-5,6,7,8-tetrahydronaphthalen-1-ol]",1-1.9,–,activity upon oral administration ([2]; preclinical data): zero to limited activity
CCCCCCCCCC(=O)Oc1cccc2c1CCC(N(CCC)CCc1cccs1)C2 (stereo not drawn) [Compound A10],>4,–,"Mean AUC/mg [3, 5]: <1.25 × 10^−9 hr..^−1; Mean Cmax/mg [3, 5]: <1e-10 mL⁻¹; Mean AUC/mg [3, 6]: >188 × 10^−6 hr..^−1; Mean Cmax/mg [3, 6]: >1.2e-05 mL⁻¹"
"CCCN[C@H]1CCc2c(O)cccc2C1 [Compound B1, (6S)-(−)-5-hydroxy-N-propyl-2-aminotetralin]",−0.5,about 10.6,–
CCCCCCCCCCCCCCCC(=O)Oc1cccc2c1CCC(NCCC)C2 (stereo not drawn) [Compound B5],6.5-7.5,–,–
"CCCN(CCC)C1CCc2cccc(O)c2C1 (stereo not drawn) [Compound C1, 8-hydroxy-N,N-dipropyl-2-aminotetralin]",–,about 10.54,–
"CCCN(CCC)C1CCc2ccc(O)cc2C1 (stereo not drawn) [Compound C2, 7-hydroxy-N,N-dipropyl-2-aminotetralin]",–,about 10.54,–
"CCCN(CCC)C1CCc2c(O)cccc2C1 (stereo not drawn) [Compound C3, 5-hydroxy-N,N-dipropyl-2-aminotetralin]",–,about 10.5,–
"CCCCCCCCCCCC(=O)Oc1cccc2c1CC(N(CCC)CCC)CC2 (stereo not drawn) [Compound C7, Laurate (C12) Ester of 8-OH-DPAT]",6.5-7.5,–,–
CCCN(CCc1cccs1)[C@H]1CCc2c(O)cccc2C1 [Compound N-0923],–,–,bioavailability after oral administration ([2]; animal model): about 0.5%
